According to US10555536B2, “Crop fortification, nutrition and crop protection composition” (priority 2017, dated 2020):

Tested on: Groundnut
Experiment: Field trial on groundnut, protein content of seeds
Parameters: species or system Groundnut GG-2 variety
Conditions: in vivo
Description: Field Trial Study of Treatments with Spirulina Compositions on Groundnut by Soil Drenching. Trials were laid in Ishvarpura (Idar) village, Dist.-Sabarkantha, Gujarat, India, to evaluate various compositions for treatment of Groundnut GG-2 variety. The plot size was 3828 m2. All the recommended agronomic practices were followed. All the treatments were applied by Soil drenching. Also, no urea or any other chemical fertilizer was applied in the trial and in the previous crop. Thus, the parts where compositions of the present invention were applied were free of chemical nutrient for over a year.

NC(N)=O [Urea]
Protein content of Groundnut Seeds %: 48.884%
